Assay results reported in ChEMBL document CHEMBL1151580, “Synthesis and antibacterial activity of some C-3-lactonyl substituted cephalosporins” (1993).

How the values were obtained:
Streptococcus pneumoniae [1] = test: Minimum inhibitory concentration required for antibacterial activity against Streptococcus pneumoniae PU 7; format: functional
Streptococcus pyogenes = test: Minimum inhibitory concentration required for antibacterial activity against Streptococcus pyogenes CN 10; format: functional
Staphylococcus aureus [2] = test: Minimum inhibitory concentration required for antibacterial activity against Staphylococcus aureus MB9; format: functional
Escherichia coli [3] = test: Minimum inhibitory concentration required for antibacterial activity against Escherichia coli JT425; format: functional
Streptococcus pneumoniae [4] = test: Minimum inhibitory concentration required for antibacterial activity against Streptococcus pneumoniae 1761; format: functional
Staphylococcus aureus [5] = test: Minimum inhibitory concentration required for antibacterial activity against Staphylococcus aureus Russell
Klebsiella pneumoniae = test: Minimum inhibitory concentration required for antibacterial activity against Klebsiella pneumoniae T767; format: functional
Escherichia coli [6] = test: Minimum inhibitory concentration required for antibacterial activity against Escherichia coli 1077; format: functional
Staphylococcus aureus [7] = test: Minimum inhibitory concentration required for antibacterial activity against Staphylococcus aureus Oxford
Proteus mirabilis = test: Minimum inhibitory concentration required for antibacterial activity against Pr. mirabilis C977; format: functional
Haemophilus influenzae [8] = test: Minimum inhibitory concentration required for antibacterial activity against Haemophilus influenzae Q1; format: functional
Pseudomonas aeruginosa = test: Minimum inhibitory concentration required for antibacterial activity against Pseudomonas aeruginosa 10662; format: functional
Streptococcus agalactiae = test: Minimum inhibitory concentration required for antibacterial activity against Streptococcus agalactiae 2798; format: functional
Escherichia coli [9] = test: Minimum inhibitory concentration required for antibacterial activity against Escherichia coli ESS; format: functional
Haemophilus influenzae [10] = test: Minimum inhibitory concentration required for antibacterial activity against Haemophilus influenzae NEMC1; format: functional
Escherichia coli [11] = test: Minimum inhibitory concentration required for antibacterial activity against Escherichia coli 10418; format: functional
Enterococcus faecalis = test: Minimum inhibitory concentration required for antibacterial activity against Ent. faecalis I; format: functional
[12] = system: Staphylococcus epidermidis; test: Minimum inhibitory concentration required for antibacterial activity against Staphylococcus epidermidis PHLN 20; format: functional
Moraxella catarrhalis = test: Minimum inhibitory concentration required for antibacterial activity against Moraxella catarrhalis Ravasio; format: functional
Morganella morganii = test: Minimum inhibitory concentration required for antibacterial activity against Morg. morganii T361; format: functional
Staphylococcus aureus [13] = test: Minimum inhibitory concentration required for antibacterial activity against Staphylococcus aureus Russell; format: functional
Staphylococcus aureus [14] = test: Minimum inhibitory concentration required for antibacterial activity against Staphylococcus aureus Oxford; format: functional

With `CO/N=C(\C(=O)N[C@@H]1C(=O)N2C(C(=O)[O-])=C(/C=C3\C=C(C)C(=O)O3)CS[C@H]12)c1csc(N)n1.[Na+]` the MIC (Streptococcus pneumoniae [1]) was 0.5 µg/mL, the MIC (Streptococcus pyogenes) was under 0.03 µg/mL and the MIC (Staphylococcus aureus [2]) was 4 µg/mL. The MIC (Escherichia coli [3]) was 2 µg/mL, the MIC (Streptococcus pneumoniae [4]) was under 0.03 µg/mL and the MIC (Staphylococcus aureus [5]) was 2 µg/mL. It also gave an MIC (Klebsiella pneumoniae) of 1 µg/mL, an MIC (Escherichia coli [6]) of 1 µg/mL and an MIC (Staphylococcus aureus [7]) of 1 µg/mL. For the same compound, the MIC (Proteus mirabilis) was 0.06 µg/mL, the MIC (Haemophilus influenzae [8]) was under 0.03 µg/mL and the MIC (Pseudomonas aeruginosa) was 32 µg/mL. The MIC (Streptococcus agalactiae) was under 0.03 µg/mL, the MIC (Escherichia coli [9]) was under 0.03 µg/mL and the MIC (Haemophilus influenzae [10]) was under 0.03 µg/mL. The MIC (Escherichia coli [11]) was under 0.03 µg/mL, the MIC (Enterococcus faecalis) was 16 µg/mL and the MIC [12] was 2 µg/mL. The MIC (Moraxella catarrhalis) was 8 µg/mL and the MIC (Morganella morganii) was under 0.06 µg/mL.
Work on `CO/N=C(\C(=O)N[C@@H]1C(=O)N2C(C(=O)[O-])=C(COC(C)=O)CS[C@H]12)c1csc(N)n1.[Na+]` [CEFOTAXIME SODIUM] yielded an MIC (Staphylococcus aureus [13]) of 2 µg/mL, an MIC (Streptococcus pneumoniae [1]) of 2 µg/mL and an MIC (Streptococcus pyogenes) of under 0.03 µg/mL. It also gave an MIC (Staphylococcus aureus [2]) of 4 µg/mL, an MIC (Escherichia coli [3]) of 0.5 µg/mL and an MIC (Streptococcus pneumoniae [4]) of under 0.03 µg/mL. For the same compound, the MIC (Klebsiella pneumoniae) was 0.06 µg/mL, the MIC (Staphylococcus aureus [14]) was 2 µg/mL and the MIC (Escherichia coli [6]) was under 0.03 µg/mL. The MIC (Proteus mirabilis) was under 0.03 µg/mL, the MIC (Haemophilus influenzae [8]) was under 0.03 µg/mL and the MIC (Pseudomonas aeruginosa) was 16 µg/mL. The MIC (Streptococcus agalactiae) was 0.12 µg/mL, the MIC (Escherichia coli [9]) was under 0.03 µg/mL and the MIC (Haemophilus influenzae [10]) was under 0.03 µg/mL. The MIC (Escherichia coli [11]) was under 0.03 µg/mL, the MIC (Enterococcus faecalis) was over 64 µg/mL and the MIC [12] was 1 µg/mL. It also gave an MIC (Moraxella catarrhalis) of 0.25 µg/mL and an MIC (Morganella morganii) of 2 µg/mL.
In the case of `CO/N=C(\C(=O)N[C@@H]1C(=O)N2C(C(=O)[O-])=C(CC3C=CC(=O)O3)CS[C@H]12)c1csc(N)n1.[Na+]` (stereo not given in full), the MIC (Staphylococcus aureus [13]) is reported as 1 µg/mL, the MIC (Streptococcus pneumoniae [1]) is reported as 4 µg/mL and the MIC (Streptococcus pyogenes) is reported as under 0.03 µg/mL. It also gave an MIC (Staphylococcus aureus [2]) of 4 µg/mL, an MIC (Escherichia coli [3]) of 4 µg/mL and an MIC (Streptococcus pneumoniae [4]) of under 0.03 µg/mL. For the same compound, the MIC (Klebsiella pneumoniae) was 0.5 µg/mL, the MIC (Staphylococcus aureus [14]) was 1 µg/mL and the MIC (Escherichia coli [6]) was 0.5 µg/mL. For the same compound, the MIC (Proteus mirabilis) was 0.25 µg/mL, the MIC (Haemophilus influenzae [8]) was 0.06 µg/mL and the MIC (Pseudomonas aeruginosa) was over 64 µg/mL. The MIC (Streptococcus agalactiae) was 0.06 µg/mL, the MIC (Escherichia coli [9]) was under 0.03 µg/mL and the MIC (Haemophilus influenzae [10]) was under 0.03 µg/mL. The MIC (Escherichia coli [11]) was 0.06 µg/mL, the MIC (Enterococcus faecalis) was over 64 µg/mL and the MIC [12] was 4 µg/mL. The MIC (Moraxella catarrhalis) was 0.5 µg/mL and the MIC (Morganella morganii) was 0.5 µg/mL.
Work on `CO/N=C(\C(=O)N[C@@H]1C(=O)N2C(C(=O)[O-])=C(C3CCC(=O)O3)CS[C@H]12)c1csc(N)n1.[Na+]` (stereo not given in full) yielded an MIC (Staphylococcus aureus [13]) of 1 µg/mL, an MIC (Streptococcus pneumoniae [1]) of 2 µg/mL and an MIC (Streptococcus pyogenes) of under 0.03 µg/mL. The MIC (Staphylococcus aureus [2]) was 2 µg/mL, the MIC (Escherichia coli [3]) was 1 µg/mL and the MIC (Streptococcus pneumoniae [4]) was under 0.03 µg/mL. For the same compound, the MIC (Klebsiella pneumoniae) was 0.06 µg/mL, the MIC (Staphylococcus aureus [14]) was 1 µg/mL and the MIC (Escherichia coli [6]) was 0.12 µg/mL. It also gave an MIC (Proteus mirabilis) of under 0.03 µg/mL, an MIC (Haemophilus influenzae [8]) of 0.06 µg/mL and an MIC (Pseudomonas aeruginosa) of 64 µg/mL. For the same compound, the MIC (Streptococcus agalactiae) was 0.06 µg/mL, the MIC (Escherichia coli [9]) was under 0.03 µg/mL and the MIC (Haemophilus influenzae [10]) was under 0.03 µg/mL. It also gave an MIC (Escherichia coli [11]) of under 0.03 µg/mL, an MIC (Enterococcus faecalis) of over 64 µg/mL and an MIC [12] of 0.5 µg/mL. The MIC (Moraxella catarrhalis) was 2 µg/mL and the MIC (Morganella morganii) was 0.06 µg/mL.
